Reference: US20140235776A1, “AMINOALCOHOL COMPOUNDS AND THEIR USE AS ZERO OR LOW VOC ADDITIVES FOR PAINTS AND COATINGS” (ANGUS CHEMICAL COMPANY, priority 2011, published 2014)
Where two headings read alike, the source gives them in different places.

Columns and labels:
Format in all cases: physicochemical
[1] = Krebs-units (KU) low shear viscosity of paint, ASTM D562
Protocol: (§1) The pH of each formulation is measured with a digital pH meter with a glass combination pH probe. Krebs-units (KU) viscosity is measured with Brookfield model KU viscometer with digital display (ASTM D562), at 25° C. The high shear (“ICI”) viscosity is measured according to ASTM D 4287 using a Brookfield CAP 1000+ viscometer at a shear rate of 12,000 s^−1 at 900 rpm, with a 0.45° cone of radius 1.511 cm, and a sample temperature controlled at 25° C.

[2] = pH of paint formulation (digital pH meter); conditions: for pH: Zero VOC Flat Formulation, vinyl acrylic latex; for pH, 1 day 25° C.: Zero VOC Semi Gloss Formulation, acrylic latex
Protocol: pH, Low Shear and High Shear Viscosity.
The pH of each formulation is measured with a digital pH meter with a glass combination pH probe. Krebs-units (KU) viscosity is measured with Brookfield model KU viscometer with digital display (ASTM D562), at 25° C.

[3] = High shear (ICI) viscosity of paint, ASTM D 4287; conditions: in P (unit assumed)
Protocol: as §1

[4] = pKa of neutralizing amines
[5] = VOC testing according to ASTM D6886-rev (gas chromatography); conditions: neutralizer in a finished paint formulation, GC conditions of Table 2
Protocol: VOC properties are tested according to the ASTM D6886-rev method.

[6] = Freeze-thaw cycles of paint samples, viscosity by Krebs Stormer Viscometer; conditions: for freeze-thaw survival of paint sample (in words): added as post-add, 2 wt %; for Viscosity after Freeze-Thaw cycles (KU), 2nd cycle / Viscosity after Freeze-Thaw cycles (KU), 3rd cycle / Viscosity after Freeze-Thaw cycles (KU), 4th cycle / Viscosity after Freeze-Thaw cycles (KU), 5th cycle / Viscosity after Freeze-Thaw cycles (KU), 1st cycle: additive 2 wt %; for Initial Viscosity (KU): additive 2 wt % post-add in paint of Table 8, before freeze-thaw; for Viscosity after Freeze-Thaw cycles (KU), 1st cycle: cycle = −18° C. 17 hours, 25° C. 7 hours
Protocol: Preparation of paint formulations containing compounds of the invention: The paint formulations are prepared using F/T agent 1 and 2 as shown by structures below. The octanol water partition coefficients are calculated for these compounds using the method of Moriguchi et al., Chem. Pharm. Bull. 40(1), 127-130 (1992). The calculated octanol-water partition coefficients for F/T-1 and F/T-2 are −2.59, and −3.99, respectively. […] Paint samples are frozen at −18° C. for 17 hours and then thawed at 25° C. for 7 hours. This constitutes 1 complete freeze-thaw cycle. Viscosities are measured after each freeze-thaw cycle using a Krebs Stormer Viscometer from Sheen at room temperature. The viscosity is measured in Krebs unit (KU). The results of freeze-thaw cycles on paint samples that contain zero-VOC compounds of the invention as post-adds are listed in the Table 9. The post-add compounds are mixed at 2 wt % in the paint samples. The same paint formulation is used in preparing all the samples. The paint sample without any post-add is designated as “Blank.”
The KU values below 150 as reported in Table 9 are considered acceptable, and all the values (other than that for the Blank) reported are considered very acceptable.

[7] = Zero VOC Semi Gloss Formulation
[8] = read-out: pKa (first value, pK1)
[9] = read-out: pKa (second value, pK2)

pKa [4, 8] | pKa [4, 9] | VOC contributed by neutralizers [5] [%^2] | Viscosity after Freeze-Thaw cycles (KU), 2nd cycle [6] [KU] | Viscosity after Freeze-Thaw cycles (KU), 3rd cycle [6] [KU] | Viscosity after Freeze-Thaw cycles (KU), 4th cycle [6] [KU] | Viscosity after Freeze-Thaw cycles (KU), 5th cycle [6] [KU] | Initial Viscosity (KU) [6] [KU] | Viscosity after Freeze-Thaw cycles (KU), 1st cycle [6] [KU] | SMILES | also measured
– | – | – | – | – | – | – | – | – | CC(O)CNCCNCCN(CCNCC(C)O)CC(C)O (centres unmarked) [TETA 3PO, 7-(2-hydroxypropyl)-4,7,10,13-tetraazahexadecane-2,15-diol] | KU Viscosity, 1 day 25° C. ([1]; Zero VOC Flat Formulation): 92.8 KU; KU Viscosity, 1 day 25° C. [1, 7]: 85.9 KU; pH [2]: 8.51; pH, 1 day 25° C. [2]: 9.46; ICI Viscosity, 1 day 25° C. ([3]; Zero VOC Flat Formulation): 1.29; ICI Viscosity, 1 day 25° C. [3, 7]: 1.018
8.7 | 4.8 | 0 | – | – | – | – | – | – | CC(O)CNCCN(CCNCCN(CCNCC(C)O)CC(C)O)CC(C)O (centres unmarked) [TEPA 4PO, 7,13-bis(2-hydroxypropyl)-4,7,10,13,16-pentaazanonadecane-2,18-diol] | –
– | – | – | 111.1 | 112.7 | 111.8 | 109.5 | 89.5 | 108 | OCC(O)CNCCN(CCNCC(O)CO)CC(O)CO (centres unmarked) [F/T Agent 1, 3,3′-((((2,3-dihydroxypropyl)azanediyl)bis(ethane-2,1-diyl))bis(azanediyl))bis(propane-1,2-diol)] | freeze-thaw survival of paint sample (in words) [6]: survive five freeze-thaw cycles
9.7 | 5.8 | 0 | – | – | – | – | – | – | CC(C)(N)CNCCOCCOCCNCC(C)(C)N [EDBDA bis-AMP, N1,N1′-((ethane-1,2-diylbis(oxy))bis(ethane-2,1-diyl))bis(2-methylpropane-1,2-diamine), reference compound] | –
– | – | – | 103.2 | 115.1 | 99.4 | 98.2 | 89.8 | 101.3 | CC(O)CO (centres unmarked) [Propylene Glycol, propylene glycol, reference compound] | –
– | – | – | – | – | – | – | – | – | [Na+].[OH-] [NaOH, sodium hydroxide, reference compound] | KU Viscosity, 1 day 25° C. ([1]; Zero VOC Flat Formulation): 86 KU; KU Viscosity, 1 day 25° C. [1, 7]: 89.1 KU; pH [2]: 8.56; pH, 1 day 25° C. [2]: 9.47; ICI Viscosity, 1 day 25° C. ([3]; Zero VOC Flat Formulation): 1.184; ICI Viscosity, 1 day 25° C. [3, 7]: 1.059
8.9 | 4.6 | 0 | – | – | – | – | – | – | OCC(O)CNCCN(CCNCC(O)CO)CC(O)CO (centres unmarked) [DETA Glyc, 3,3′-((((2,3-dihydroxypropyl)azanediyl)bis(ethane-2,1-diyl))bis(azanediyl))bis(propane-1,2-diol)] | –
– | – | – | 113.1 | 114 | 121.7 | 116.3 | 88.2 | 110.4 | OCC(O)CN(CCN(CC(O)CO)CC(O)CO)CCN(CC(O)CO)CC(O)CO (centres unmarked) [F/T Agent 2, 3,3′,3″,3′′′-((((2,3-dihydroxypropyl)azanediyl)bis(ethane-2,1-diyl))bis(azanetriyl))tetrakis(propane-1,2-diol)] | freeze-thaw survival of paint sample (in words) [6]: survive five freeze-thaw cycles

SMILES | pKa [4, 8] | pKa [4, 9] | VOC contributed by neutralizers [5] [%^2] | Viscosity after Freeze-Thaw cycles (KU), 2nd cycle [6] [KU] | Viscosity after Freeze-Thaw cycles (KU), 3rd cycle [6] [KU] | Viscosity after Freeze-Thaw cycles (KU), 4th cycle [6] [KU] | Viscosity after Freeze-Thaw cycles (KU), 5th cycle [6] [KU] | Initial Viscosity (KU) [6] [KU] | Viscosity after Freeze-Thaw cycles (KU), 1st cycle [6] [KU] | also measured
OCCOCCO [Diethylene Glycol, diethylene glycol, reference compound] | – | – | – | 105.1 | 106.9 | 100.6 | 98 | 91.0 | 101.1 | –
